Measured values reported in patent publication US6962808B2, “Method and apparatus for measurement of the effect of test compounds on signal transduction at the level of biological receptors” (The University of Louisville Research Foundation, priority 1998, dated 2005).

Molecular target: T1, human estrogen receptor binding to ERE (Homo sapiens, UniProt P03372)
T1 construct: ubiquitin (fusion partner); made in house; host or cells: Saccharomyces cerevisiae strain AF103, YEpE10 plasmid, CUP1 promoter
T1 sequence (P03372 whole entry, the tested form may be a part): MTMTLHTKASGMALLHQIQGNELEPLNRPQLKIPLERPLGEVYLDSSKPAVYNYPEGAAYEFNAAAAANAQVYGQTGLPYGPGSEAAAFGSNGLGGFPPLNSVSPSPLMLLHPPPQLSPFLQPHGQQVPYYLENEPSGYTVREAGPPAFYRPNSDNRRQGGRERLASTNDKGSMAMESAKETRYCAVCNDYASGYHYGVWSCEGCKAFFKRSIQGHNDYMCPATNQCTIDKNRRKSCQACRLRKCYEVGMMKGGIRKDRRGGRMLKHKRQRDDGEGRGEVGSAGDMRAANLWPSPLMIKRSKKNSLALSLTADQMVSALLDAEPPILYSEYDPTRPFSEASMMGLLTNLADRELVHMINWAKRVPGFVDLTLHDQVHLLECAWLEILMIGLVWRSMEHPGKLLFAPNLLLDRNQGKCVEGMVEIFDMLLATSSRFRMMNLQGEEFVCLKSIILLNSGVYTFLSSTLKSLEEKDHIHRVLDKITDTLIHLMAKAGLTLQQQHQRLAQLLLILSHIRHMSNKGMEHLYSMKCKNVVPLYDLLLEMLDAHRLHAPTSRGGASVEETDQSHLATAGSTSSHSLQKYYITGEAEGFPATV
Test: Evanescent fiber optic sensor, ERE fiber, binding of Cy5-tagged hER to the estrogen response element
Type: biochemical
Experimental: This solution comprised said calibration standard of component 6a. […] This receptor preparation was used as the calibration solution. Immediately after preparation it was pipetted in 135 μl aliquots into microcentrifuge tubes, snap frozen and stored at −80° C. They were not thawed again until they were used with the fiber sensor.

## C[C@H]1CCCC(=O)CCC/C=C/c2cc(O)cc(O)c2C(=O)O1 [zearalenone]
S/C value, control = 3.51
  Response of ERE fiber to hER and 10^−6 M compound (control = 3.51): 5.01
In words, 10^−6 M compound
  effect on binding of hER to the ERE fiber: increase binding to the ERE more than do the weak biological estrogens
